Broadly, the EC50 is the midpoint of the concentration-response curve.

For one test, the target named is T1, FSHR (Homo sapiens, UniProt P23945).
T1 construct: expressed in transfected cells; host or cells: CHO (Cho-FSHR-LUC-1-1-43)
T1 sequence (P23945 18-695): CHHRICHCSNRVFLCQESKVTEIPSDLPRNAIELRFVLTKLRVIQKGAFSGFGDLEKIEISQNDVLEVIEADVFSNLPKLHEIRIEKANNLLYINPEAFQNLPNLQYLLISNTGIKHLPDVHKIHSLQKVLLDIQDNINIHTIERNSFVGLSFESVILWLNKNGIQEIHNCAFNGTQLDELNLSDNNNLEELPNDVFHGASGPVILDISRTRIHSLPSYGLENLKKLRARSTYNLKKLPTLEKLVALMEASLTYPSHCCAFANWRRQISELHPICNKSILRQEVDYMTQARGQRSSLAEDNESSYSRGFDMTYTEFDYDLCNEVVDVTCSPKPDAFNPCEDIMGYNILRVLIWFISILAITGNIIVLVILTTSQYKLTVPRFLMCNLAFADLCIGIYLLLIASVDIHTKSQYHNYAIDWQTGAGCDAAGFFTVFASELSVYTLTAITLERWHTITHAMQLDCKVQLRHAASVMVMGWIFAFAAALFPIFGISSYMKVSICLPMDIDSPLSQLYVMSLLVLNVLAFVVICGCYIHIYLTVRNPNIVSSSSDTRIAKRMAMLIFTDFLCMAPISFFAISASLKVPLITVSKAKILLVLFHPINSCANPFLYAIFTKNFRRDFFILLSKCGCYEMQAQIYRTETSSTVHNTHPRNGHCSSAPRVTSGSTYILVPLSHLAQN
T1 sequence (P01215 25-116 partner): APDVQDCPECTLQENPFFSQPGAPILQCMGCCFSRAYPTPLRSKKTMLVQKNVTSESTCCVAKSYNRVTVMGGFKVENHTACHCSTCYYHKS
T1 sequence (P01225 19-129 partner): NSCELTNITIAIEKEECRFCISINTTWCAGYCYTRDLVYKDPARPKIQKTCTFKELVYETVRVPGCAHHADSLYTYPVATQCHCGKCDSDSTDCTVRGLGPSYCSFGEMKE
Kind of test: EC50 of cyclic AMP production in CHO FSHR cells + EC20 FSH (Assay A). Particulars: 1 h; 5 μM; effect relative to maximum response of the FSH standard; Table 1. It counts as cell-based. Put shortly: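 cAMP HTRF ratio (665/620 nm) read after 1 h, 37 °C exposure of CHO-FSHR cells to compound in presence of EC20 FSH ([…]) and IBMX 200 μM. Responses given relative to FSH standard maximum; EC50 derived.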
`Cc1ccccc1N1CCN(c2ccc(C(=O)NCCCN3CCCC3=O)cc2NC(=O)c2cccc(C(N)=O)c2)CC1` [Compound 163]: the activation at 5 µM is 8%.

For `Cc1ccc(C(=O)Nc2cc(C(=O)NCCCN3CCCC3=O)ccc2N2CCN(Cc3ccccc3C)[C@@H](C)C2)o1` [Compound 253], the activation at 5 µM was 24%.

Still in this test, the particulars now being: CHO FSHR cells + EC20 FSH; Table 1; read-out: Assay A EC50 of cyclic AMP production.
For the compound `Cc1ccccc1N1CCN(c2ccc(C(=O)NCCCN3CCCC3=O)cc2NC(=O)c2ncoc2C)CC1` [Compound 78], the EC50 lay in the range of 0.1 to 1 µM.

On to `Cc1ccccc1N1CCN(c2ccc(C(=O)NCc3ccc(C(N)=O)cc3)cc2NC(=O)c2ccco2)CC1` [Compound 247], for which the EC50 is under 0.1 µM.

Turning to `Cc1ccccc1N1CCN(c2ccc(C(=O)NC3CCN(C(=O)OC(C)(C)C)CC3)cc2NC(=O)c2ccco2)CC1` [Compound 49, 4-[3-[(Furan-2-carbonyl)-amino]-4-(4-o-tolyl-piperazin-1-yl)-benzoylamino]-piperidine-1-carboxylic acid tert-butyl ester], the concentration giving a half-maximal response (EC50) was in the range of 0.1 to 1 µM.

Regarding `Cc1ccccc1N1CCN(c2ccc(C(=O)NCCCn3cccn3)cc2NC(=O)c2ccco2)CC1` [Compound 90], the EC50 was 0.1 to 1 µM.

With `Cc1ccccc1N1CCN(c2ccc(C(=O)NCc3cccc(-c4ccnn4C)c3)cc2NC(=O)c2ccco2)CC1` [Compound 237], the EC50 fell in the range of 0.1 to 1 µM.

On to `Cc1ccccc1N1CCN(c2ccc(C(=O)NCCN(C)C(=O)c3ccc4c(c3)OCO4)cc2NC(=O)c2ccco2)CC1` [Compound 134, Benzo[1,3]dioxole-5-carboxylic acid {2-[3-[(furan-2-carbonyl)-amino]-4-(4-o-tolyl-piperazin-1-yl)-benzoylamino]-ethyl}-methyl-amide], for which the EC50 was 1 to 10 µM.

With `Cc1ccccc1N1CCN(c2ccc(C(=O)NCCCN3CCCC3=O)cc2NC(=O)C2CCCCC2)CC1` [Compound 82], the EC50 lay within 1 to 10 µM.

Turning to `Cc1ccc(C(=O)Nc2cc(C(=O)NCCCN3CCCC3=O)ccc2N2CCN(c3ccccc3[N+](=O)[O-])CC2)o1` [Compound 261], the EC50 lay within 1 to 10 µM.

For the compound `Cc1ccccc1N1CCN(c2ccc(C(=O)NCCCN3CCCC3=O)cc2NC(=O)c2ccccc2Cl)CC1` [Compound 19], the EC50 was in the range of 1 to 10 µM.

As for `COc1cccc(CNC(=O)c2ccc(N3CCN(c4ccccc4C)CC3)c(NC(=O)c3ccco3)c2)c1` [Compound 93, Furan-2-carboxylic acid [5-(3-methoxy-benzylcarbamoyl)-2-(4-o-tolyl-piperazin-1-yl)-phenyl]-amide], the EC50 was in the range of 0.1 to 1 µM.

As to `Cc1ccccc1N1CCN(c2ccc(C(=O)NCCCN3CCCC3=O)cc2NC(=O)c2coc(C(C)C)n2)CC1` [Compound 208], the EC50 is 1 to 10 µM.

On to `Cc1ccccc1N1CCN(c2ccc(C(=O)NCCCN3CCCC3=O)cc2NC(=O)c2ccsc2)CC1` [Compound 69], for which the half-maximal effective concentration (EC50) lay within 0.1 to 1 µM.

For the compound `Cc1ccccc1N1CCN(c2ccc(C(=O)NCCCN3CCCC3=O)cc2NC(=O)c2nc(Br)cs2)CC1` [Compound 178], the EC50 was 1 to 10 µM.

On to `CC(=O)NCCCNC(=O)c1ccc(N2CCN(c3ccccc3C)CC2)c(NC(=O)c2ccc(C)o2)c1` [Compound 259, 5-Methyl-furan-2-carboxylicacid [5-(3-acetylaminopropylcarbamoyl)-2-(4-o-tolyl-piperazin-1-yl)-phenyl]-amide], for which the EC50 lay in the range of 0.1 to 1 µM.

As to `Cc1ccccc1N1CCN(c2ccc(C(=O)NCCCN3CCCC3=O)cc2NC(=O)c2csnn2)CC1` [Compound 110], the EC50 fell in the range of 1 to 10 µM.

On to `Cc1ccccc1N1CCN(c2ccc(C(=O)NCCCc3cn[nH]c3)cc2NC(=O)c2coc(C3CC3)n2)CC1` [Compound 232], for which the EC50 fell in the range of 0.1 to 1 µM.

Still in this test, the particulars now being: CHO FSHR cells + EC20 FSH; Table 2; read-out: Assay A EC50 of cyclic AMP production.
As to `CC(=O)NCC(C)(C)CNC(=O)c1ccc(N2CCN(c3ccccc3C)CC2)c(NC(=O)c2coc(C3CC3)n2)c1` [Compound 355], the EC50 was in the range of 0.1 to 1 µM.

As to `Cc1ccccc1N1CCN(c2ccc(C(=O)NCCCN3CCCC3=O)cc2NC(=O)c2cnc(C3CC3)s2)CC1` [Compound 383], the EC50 is 0.1 to 1 µM.

As to `CC(C)(C)OC(=O)NC1CCN(c2ccc(C(=O)NCCCN3CCCC3=O)cc2NC(=O)c2coc(C3CC3)n2)CC1` [Compound 273], the EC50 lay within 1 to 10 µM.

As for `O=C(NCCCN1CCCC1=O)c1ccc(N2CCN(c3ccccc3Br)CC2)c(NC(=O)c2coc(C3CC3)n2)c1` [Compound 313], the EC50 lay within 0.1 to 1 µM.

On to `Cc1ccccc1N1CCN(c2ccc(C(=O)NCCCC(=O)CN(c3ccccc3)c3ccccc3)cc2NC(=O)c2coc(C3CC3)n2)CC1` [Compound 361], for which the EC50 was 1 to 10 µM.

As for `Cc1cnccc1N1CCN(c2ccc(C(=O)NCCCN3CCCC3=O)cc2NC(=O)c2coc(C3CC3)n2)CC1` [Compound 452], the EC50 fell in the range of 1 to 10 µM.

Regarding `Cc1ccc(C(=O)Nc2cc(C(=O)NCCCc3cccc(O)c3)ccc2N2CCN(c3ccccc3C)CC2)o1` [Compound 588], the EC50 was 0.1 to 1 µM.

Take `Cc1ccccc1N1CCN(c2ccc(C(=O)NCCCN3CC(C)OC3=O)cc2NC(=O)c2coc(C3CC3)n2)CC1` (centres unmarked) [Compound 366]: the EC50 fell in the range of 0.1 to 1 µM.

`Cc1ccccc1N1CCN(c2ccc(C(=O)NCCCN3C(=O)OCC3C)cc2NC(=O)c2coc(C3CC3)n2)CC1` (centres unmarked) [Compound 332]: the half-maximal effective concentration (EC50) was in the range of 0.1 to 1 µM.

For `CCNC(=O)NCCCNC(=O)c1ccc(N2CCN(c3ccccc3C)CC2)c(NC(=O)c2ccco2)c1` [Compound 492], the EC50 lay within 0.1 to 1 µM.

In the case of `Cc1ccc(C(=O)Nc2cc(C(=O)NCc3cccc(CN(C)C)c3)ccc2N2CCN(c3ccccc3C)CC2)o1` [Compound 544], the EC50 was 1 to 10 µM.

With `Cc1ccccc1N1CCN(c2ccc(C(=O)Nc3ccnn3CC3CCOC3)cc2NC(=O)c2coc(C3CC3)n2)CC1` (centres unmarked) [Compound 412], the EC50 fell in the range of 1 to 10 µM.

`Cc1ccccc1N1CCN(c2ccc(C(=O)NCCCNC(=O)C(C)C)cc2NC(=O)c2coc(C3CC3)n2)CC1` [Compound 446]: the EC50 fell in the range of 0.1 to 1 µM.

As to `Cc1ccc(C(=O)Nc2cc(C(=O)NCCCN3CCCC3=O)ccc2N2CCN(c3ccccc3OC(F)(F)F)CC2)o1` [Compound 404], the EC50 was in the range of 1 to 10 µM.

As to `Cc1ccccc1N1CCN(c2ccc(C(=O)NCCCCN3CCOCC3)cc2NC(=O)c2coc(C3CC3)n2)CC1` [Compound 472], the EC50 was 0.1 to 1 µM.

Regarding `Cc1ccccc1N1CCN(c2ccc(C(=O)NCCCC(=O)O)cc2NC(=O)c2coc(C3CC3)n2)CC1` [Compound 351], the EC50 is 0.1 to 1 µM.

Take `Cc1cncnc1N1CCN(c2ccc(C(=O)NCCCN3CCOC3=O)cc2NC(=O)c2coc(C3CC3)n2)CC1` [Compound 460]: the EC50 fell in the range of 0.1 to 1 µM.

Turning to `COc1ccccc1CNC(=O)c1ccc(N2CCN(c3ccccc3C)CC2)c(NC(=O)c2coc(C3CC3)n2)c1` [Compound 277], the EC50 lay in the range of 0.1 to 1 µM.

With `Cc1cncc(N2CCN(c3ccc(C(=O)NCCCN4CCCC4=O)cc3NC(=O)c3coc(C4CC4)n3)CC2)n1` [Compound 533], the EC50 was 1 to 10 µM.

As for `CC(=O)NCCCNC(=O)c1ccc(N2CCN(c3ccccc3C)CC2)c(NC(=O)c2coc(C3CC3)n2)c1` [Compound 368], the EC50 is 0.1 to 1 µM.

Regarding `Cc1ccccc1N1CCN(c2ccc(C(=O)NCCN3C(=O)CCC3=O)cc2NC(=O)c2coc(C3CC3)n2)CC1` [Compound 347], the EC50 was over 10 µM.

Regarding `Cc1ccccc1N1CCN(c2ccc(C(=O)NCCCNC(=O)NC3CCCC3)cc2NC(=O)c2ccco2)CC1` [Compound 494], the EC50 was in the range of 0.1 to 1 µM.

For the compound `Cc1ccccc1N1CCN(c2ccc(C(=O)NCCc3ccc(CN)cc3)cc2NC(=O)c2coc(C3CC3)n2)CC1` [Compound 499], the EC50 was in the range of 0.1 to 1 µM.

For the compound `Cc1cncnc1N1CCN(c2ccc(C(=O)NCCc3cn(C)cn3)cc2NC(=O)c2coc(C3CC3)n2)CC1` [Compound 462], the EC50 was 1 to 10 µM.

Take `Cc1ccccc1N1CCN(c2ccc(C(=O)NCC(O)CN3CCCC3=O)cc2NC(=O)c2ccco2)CC1` (centres unmarked) [Compound 467]: the EC50 was under 0.1 µM.

With `Cc1ccccc1N1CCN(c2ccc(C(=O)NCCCN3C(=O)C(=O)N(C)C3=O)cc2NC(=O)c2ccco2)CC1` [Compound 379], the EC50 is 0.1 to 1 µM.

Take `CCN(CC)Cc1cccc(CNC(=O)c2ccc(N3CCN(c4ccccc4C)CC3)c(NC(=O)c3ccc(C)o3)c2)c1` [Compound 543]: the EC50 is 1 to 10 µM.

Turning to `Cc1ccccc1N1CCN(c2ccc(C(=O)NCCCNC(=O)C3CC3)cc2NC(=O)c2coc(C3CC3)n2)CC1` [Compound 447], the EC50 fell in the range of 0.1 to 1 µM.

Consider `Cc1ccccc1N1CCN(c2ccc(C(=O)NCCc3cn(C)cn3)cc2N(C(=O)C(F)(F)F)C(=O)C(F)(F)F)CC1` [Compound 548], for which the EC50 lay in the range of 1 to 10 µM.

For the compound `Cc1ccccc1N1CCN(c2ccc(C(=O)NCCCc3ccc(O)cc3)cc2NC(=O)c2ccco2)CC1` [Compound 388], the EC50 was under 0.1 µM.

Regarding `Cc1ccccc1N1CCN(c2ccc(C(=O)NCc3cccc(CN(C)C)n3)cc2NC(=O)c2coc(C3CC3)n2)CC1` [Compound 465], the EC50 was 0.1 to 1 µM.

For the compound `Cc1ccccc1N1CCN(c2ccc(C(=O)NCCc3cn(C)cn3)cc2NC(=O)c2coc(C3CC3)n2)CC1` [Compound 317], the EC50 fell in the range of 0.1 to 1 µM.

As for `CCC(CCNC(=O)c1ccc(N2CCN(c3ccccc3C)CC2)c(NC(=O)c2ccco2)c1)N1CCCC1=O` (centres unmarked) [Compound 281], the EC50 is 0.1 to 1 µM.

With `Cc1ccccc1N1CCN(c2ccc(C(=O)NCCCN3CCOCC3)cc2NC(=O)c2coc(C3CC3)n2)CC1` [Compound 406], the EC50 lay within 0.1 to 1 µM.

Turning to `Cc1ccccc1N1CCN(c2ccc(C(=O)NCCCNC(=O)NCC3CCCCC3)cc2NC(=O)c2ccco2)CC1` [Compound 497], the half-maximal effective concentration (EC50) fell in the range of 1 to 10 µM.

For the compound `Cc1ccccc1N1CCN(c2ccc(C(=O)NC(C)(C)c3cccc(CN(C)C)c3)cc2NC(=O)c2ccco2)CC1` [Compound 487], the EC50 was 1 to 10 µM.

For `Cc1ccccc1N1CCN(c2ccc(C(=O)N[C@@H](CO)c3ccccc3)cc2NC(=O)c2coc(C3CC3)n2)CC1` [Compound 343], the EC50 lay within 1 to 10 µM.

Turning to `Cc1ccccc1N1CCN(c2ccc(C(=O)NCCCNC(=O)NC(C)C)cc2NC(=O)c2ccco2)CC1` [Compound 495], the EC50 was in the range of 0.1 to 1 µM.

For the origin of these results see patent US9938262B2, “Benzamides” (Merck Patent GmbH, priority 2011, dated 2018).
